This note sets out measurements from patent publication US10919764B2, “Multi-chamber hypochlorous acid dispenser” (WIAB WATER […], priority 2016, dated 2021).

The assay concerns spores. The settings on record: acid used for protonization of HOCl. An excerpt: In addition to buffering the product during storage and after application, acetic acid also has the advantage of improving the sporicidal effect by 40% compared to other acids used for protonization of HOCl.

`CC(=O)O` [acetic acid]: the “improvement of the sporicidal effect compared to other acids used for protonization of HOCl” value is listed as 40%.
